From patent publication US20160310523A1, “USE OF OXYGEN-CONTAINING GAS SOURCE” (China Medical University, priority 2015, published 2016)

Experiments:
blood-brain barrier [1] = assay: Claustrophobia test in gas chamber, EBD extravasation; assay type: in vivo, rats; details: breathing 100% O2 vs normal air, P>0.05, FIG. 6A
Description: FIGS. 6A and 6B show the effects of increased pO2 on the blood-brain barrier permeability. FIG. 6A is a quantitative diagram showing the detection amount of EBD in different districts of the brain of the rats in the claustrophobia test. FIG. 6B is a quantitative diagram showing the detection amount of EBD in the blood of the rats in the claustrophobia test. The rats are placed in gas chambers and allowed to breathe either normal air or 100% O2, and then performing the claustrophobia test.

blood-brain barrier [2] = assay: Hypoventilation respiratory treatment, EBD extravasation; assay type: in vivo, rats; details: hypoventilation (50 BPM) with 100% O2; FIGS. 8A, 8B
Protocol: A regional metabolic acidosis is caused by a local brain activity, but more global […] can also be induced by a hypoventilation. Given that increased blood pO2 substantially potentiates the blood-brain barrier opening by CO2/H^+, we further examine whether increasing pO2 in the rats subjected to the hypoventilation could open the blood-brain barrier in this example. The rats are injected with EBD first, and the rats are grouped and treated with a respiratory treatment by different levels of ventilation. Next, quantifying the EBD extravasation into different districts of the brain of the rats after the respiratory treatment. The respiratory treatment are a physiologically rate, the hypoventilation and a general ventilation, wherein a respiratory rate of the physiologically rate is 90 BPM (breath per minute) by using a tracheotomy, the respiratory rate of the general ventilation is 80 BPM, and the respiratory rate of the hypoventilation is 50 BPM. […]
The data of the respiratory treatment is shown in Table 4 as follows and FIG. 8A-8C. […] FIG. 8B is a quantitative diagram showing the detection amount of EBD in different districts of the brain and the blood of the rats in the hypoventilation. FIG. 8C is a quantitative diagram showing the detection amount of EBD in different districts of the brain and the blood of the rats increased a ventilation rate.

[3] = Inactivity (sedation) of rats during the forced swimming test
Protocol: Prostaglandin and serotonin are previously implicated in stress-mediated blood-brain barrier disruption. To examine whether prostaglandin and serotonin could contribute to opening of the blood-brain barrier, the rats are treated with indomethacin (10 mg/kg, i.p.) and cyproheptadine (15 mg/kg, i.p.) and then performing the forced swimming test, wherein indomethacincan can reduce the synthesis of prostaglandin and cyproheptadine competes with serotonin in that it acts on a postsynaptic receptor.

blood-brain barrier [4] = assay: Forced swim test, EBD extravasation after drug treatment; assay type: in vivo, rats; details: EIPA 5 mg/kg i.p.; zoniporide 20 mg/kg i.p.; FIG. 4C
Description: In a forced swim test, the rats are forced to swim in an opaque tank with limited spatial information, wherein a diameter, a height and a depth of the opaque tank is 43 cm, 54 cm and 29 cm, respectively.
To examine whether the NHE contributes to metabolic blood-brain barrier disruption during stressful activity, we administer either a vehicle (i.p.) or an NHE inhibitor (i.p.) to EBD-treated rats prior to forced swimming and quantify the EBD extravasation into the brain.

[5] = indomethacin 10 mg/kg i.p., cyproheptadine 15 mg/kg i.p., EIPA 5 mg/kg i.p.

| SMILES | sedation at the dose used ([3]; rat, in vivo) | EBD extravasation into the motor cortex during the forced swimming test (blood-brain barrier [4]) | other results |
| --- | --- | --- | --- |
| O=O [100% O2] | – | – | increase in blood-brain barrier permeability (EBD extravasation in motor cortex, caudate/putamen, hippocampus) (blood-brain barrier [1]): not significant; blood-brain barrier opening (blood-brain barrier [2]): opens the blood-brain barrier |
| CN1CCC(=C2c3ccccc3C=Cc3ccccc32)CC1 [cyproheptadine] | marked sedation | – | – |
| CCN(c1nc(N)c(C(=O)NC(=N)N)nc1Cl)C(C)C [EIPA, Ethylisopropyl amiloride] | – | attenuates | number of the rats that remain inactive during the forced swimming test [3, 5]: 0/6; sedation at the dose used [3, 5]: not sedative |
| COc1ccc2c(c1)c(CC(=O)O)c(C)n2C(=O)c1ccc(Cl)cc1 [indomethacin] | marked sedation | – | – |
| N=C(N)NC(=O)c1cnn(-c2cccc3ncccc23)c1C1CC1 [zoniporide] | – | attenuates | – |
